Laboratory results as given in US7556928B2, “Method of screening a population of cells” (One Cell Systems, Inc., priority 2001, dated 2009).

Columns and labels:
CRL-8018 hybridoma cells [1] = test: In-vitro induced IgG isotype switching by sequential sublining and mIgG ELISA; assay type: cell-based, mouse; settings: retinoic acid 100 nM
Description: Induction of Class-Switching Using CRL-8018 cell line, we investigated and evaluated methods of increasing the number class-switching events in-vitro. Cells were plated in 75 cm^2 flasks or in 12-well plates at 1×10^4/ml and incubated for 7 days in complete growth medium supplemented with:
Determination of In-vitro Induced Switching Rate Using Sequential Sublining CRL-8018 cells were resuspended in growth medium supplemented with mitogen(s)/growth factors as described above and plated out in ten 96-well plates at a density of 1,000 cells/well. Cells were cultured at 37° C., 5% CO2 in a humid incubator for 5 days. Cell culture supernates were collected and an isotype-specific ELISA performed. Briefly, 96-well flexible assay plates, previously coated with 10μg/plate of purified goat anti-mouse IgG (Jackson Immunochemicals) in 20 mM NaHCO3 (Sigma-Aldrich), 50 μl/well, were incubated overnight at 4° C. and then washed 3 times in Dulbecco's phosphate buffered saline without calcium and magnesium/0.2% Tween 20 (DPBS-/Tween) (Sigma-Aldrich). Non-specific protein binding sites were blocked using PBS+1% BSA, 200 μl/well for 2 hr at room temperature (RT).
100 μl of each of the culture supemates were harvested and incubated in the anti-IgG coated plates for 2 hr at RT. The assay plates were washed three times in DPBS-/Tween, and 50 μl of HRP conjugated goat anti-mouse IgG (Jackson Immunochemicals) diluted 1:100 in PBS/Tween were applied to each well and incubated at RT for 1 hr. Plates were washed again and developed using 100 μl of TMB substrate solution (Sigma-Aldrich). The reaction was halted with 0.5M H2SO4 (Sigma-Aldrich) and plates were read at […] on an ELx800 ELISA plate reader (Bio-TEK Instruments, Inc.). Five rounds of the above procedure were performed to determine the switching rate.
11. Detection of In-vitro Induced IgG Isotype Switching Rate Among CRL-8018 Hybridoma Cells Using Sequennal Sublining Experiments were performed with CRL-8018 hybridoma cell line as described in Materials and Methods. […] Sequental sublining was performed as described in Materials and Methods. 1×10^6 cells were resuspended in 200 ml of growth medium supplemented with 100 nM of retinoic acid (5×10^3/ml) and plated out in ten 96-well plates at a density of 1,000 cells/well (0.2 ml/well). After 5 days of incubation at 37° C. and 5% CO2, mIgG isotype specific ELISA was performed with cell culture supemates. Cells from two positive wells were plated out in 96-well plates at a density of 100 cells/well (25 plates). Five rounds of the above procedure were performed: 1,000 cells/well, 100 cells/well, 10 cells/well, and 1 cell/well. […] About two months, 110 plates and 10,560 supemates for mIgG isotype specific ELISA were required for the assay.

CRL-8018 hybridoma cells [2] = test: Microdrop isotype capture and isolation assay (FACS); assay type: cell-based, mouse; settings: 100 nM
Description: Determination of Spontaneous and In-vitro Stimulated Switching Rate Using the Microdrop Isotype Capture and Isolation Assay Due to the low rate of isotype switching, analysis of large cell populations is necessary. —We, therefore, used a modified microdrop encapsulation protocol to isolate spontaneous or in-vitro induced rare IgG isotype switch variants among IgM secreting hybridoma cells. If the IgG concentration in supernatants was <0.1 μg/ml, we initially encapsulated multiple cells, followed by single cell encapsulation. In all cases, if,after in-vitro induction, the concentration of secreted IgG in supernatants was >0.1 μg/ml, one round of single cell encapsulation was sufficient for discriminating and sorting a small sub-population of positive cells.
Two aliquots of 500 μl melted CelBioGel-3™ were vortexed with 25 μl of 10% Pluronic F-68 solution (Sigma-Aldrich), equilibrated at 37° C. for 3 min and then each was mixed with at least 2×10^6 hybridoma cells in […] of growth medium. These mixtures were added to 15 ml prewarmed CelMix™, covered and shaken vigorously 10 times to form an emulsion. Then the vial was attached to CellSys100™ Microdrop Maker (One Cell Systems, Inc) and the emulsion was mixed at 1800 rpm for 1 min at RT, then 1800 rpm for 1 min at 0° C., and subsequently 1000 rpm for 6 min at 0° C. Microdrops were washed three times in DPBS to remove oil and then incubated in 7 ml DPBS containing streptavidin (Sigma-Aldrich) at a final concentration of 10 μg/ml for 10 min at RT.
After incubating with streptavidin, microdrops were washed three times by resuspending in 15 ml DPBS- followed by centrifugation at 1500 rpm for 5 min and then incubated with 10 μg/ml of biotinylated goat anti-mouse IgG for 10 min. Microdrops were again washed three times in DPBS- (as above) and resuspended in 20 ml of prewarmed growth medium and incubated at 37° C. for 2 hr for antibody secretion by the encapsulated cells. After incubation, microdrops were pelleted by centrifugation at 1500 rpm for 5 min, resuspended in cold DPBS- and labelled with 10 μg/ml of FITC-conjugated goat anti-mouse IgG-specific antibody (Jackson Immunochemicals). microdrops were washed twice in HBSS, resuspended in 2 ml of growth medium and sorted using a Coulter EPICS Elite; gating was set to sort only highly positive microdrops, based on controls.
To determine spontaneous and in-vitro induced switching rate using the microdrop isotype capture and isolation assay, CRL-8018 hybridoma cells were plated out in two 75 cm^2 flasks or two 12-well plates (2 ml/well) at a density of 1×10^4 cells/ml in complete growth medium alone or in the presence of stimulators as described above. Cells were cultured at 37° C., 5% CO2 in a humid incubator for 5 days. Cell culture supemates were harvested and IgM and/or IgG production was tested using IsoStip™ or an ELISA-based mouse Isotyping kit (Zymed, Inc.). All cells from 75 cm2 flasks and from wells positive for IgG production were pooled, resuspended in 100-200 μl of growth medium and encapsulated in microdrops. The first round of isotype capture and isolation enrichment with multiple occupied microdrops was then performed, as described above. After sorted cells were propagated in culture for 5 days, the second round of the assay was performed usingmicrodrops occupied by single cells. After isolation by FACS, IgG secretors were plated out in 96-well plates, 1 cell/well. The number of recovered clones was estimated using supernatant ELISA after incubating plates at 37° C. in 5% C02 for 14 days.
Fluorescence Activated Cell Sorting Cell sorting was performed using an EPICS Elite™ Coulter Corp. with a 100 μm flow nozzle. FITC-labelled detection regents were excited by the 488 nm spectral line of an argon laser. Green (FITC) fluorescence was collected using a 525 nm, long pass band filter. For statistical analysis, EPICS Elite 4.02 software was used. […]

[3] = after first round with 25 × 10^6 cells
[4] = second round, highest-fluorescence sub-population

Structure (SMILES): CC1=C(/C=C/C(C)=C/C=C/C(C)=C/C(=O)O)C(C)(C)CCC1 [retinoic acid]
- rate of isotype switching (CRL-8018 hybridoma cells [1]): ~0.0006%
- % positive wells (CRL-8018 hybridoma cells [1]; 1 cell/well, of 2400 wells): 91.2%
- % positive wells (CRL-8018 hybridoma cells [1]; 10 cells/well, of 2400 wells): 23.5%
- % positive wells (CRL-8018 hybridoma cells [1]; 100 cells/well, of 2400 wells): 12.4%
- % positive wells (CRL-8018 hybridoma cells [1]; 1,000 cells/well, of 960 wells): 0.6%
- mIgG positive wells (CRL-8018 hybridoma cells [1]; plating density 1 cell/well): 2188
- mIgG positive wells (CRL-8018 hybridoma cells [1]; plating density 10 cells/well): 564
- mIgG positive wells (CRL-8018 hybridoma cells [1]; plating density 100 cells/well): 298
- mIgG positive wells (CRL-8018 hybridoma cells [1]; plating density 1,000 cells/well): 6
- First round of FACS, FITC MFI (CRL-8018 hybridoma cells [2]; 2 × 10^6 cells, single cell encapsulation): 320.65
- First round of FACS, % positive events detected (CRL-8018 hybridoma cells [2]; 2 × 10^6 cells, single cell encapsulation, 1 cell per GMD): 0.15%
- First round of FACS, FITC MFI (CRL-8018 hybridoma cells [2]; 25 × 10^6 cells, multiple cell encapsulation): 17.93
- First round of FACS, % positive events detected (CRL-8018 hybridoma cells [2]; 25 × 10^6 cells, multiple cell encapsulation, 2.5 cells per GMD): 0.09%
- Sequential second round of FACS of single occupied GMDs, % positive events detected (CRL-8018 hybridoma cells [2]; [3]): 36.4%
- Sequential second round of FACS of single occupied GMDs, FITC MFI (CRL-8018 hybridoma cells [2]; [3]): 11.3
- Sorted GMDs % pos (CRL-8018 hybridoma cells [2]; [4]): 2.9%
- Sorted GMDs MFI (CRL-8018 hybridoma cells [2]; [4]): 75.2
